Experimental data: ChEMBL document CHEMBL1671750, “Emergence and molecular characterization of extensively drug-resistant Mycobacterium tuberculosis clinical isolates from the Delhi Region in India” (2010)
Values after ≈ are worked out from the molar mass of the structure shown. Active and inactive are the calls of the source. The rule behind the calls is not given here.

Assays:
[1] = test system: Mycobacterium tuberculosis; test: Antimycobacterial activity against extensively drug-resistant Mycobacterium tuberculosis isolate 625 horboring rpoB S531L/G566R/I569L, katG S315T/R463L, gyrA A90V/S95T, rrs A1401G by CLSI method; format: functional
[2] = test system: Mycobacterium tuberculosis; test: Antimycobacterial activity against extensively drug-resistant Mycobacterium tuberculosis isolate 761 horboring rpoB S531L/Q510P, katG S315T/R463L, gyrA D94N/S95T, rrs G1484T by CLSI method; format: functional
[3] = test system: Mycobacterium tuberculosis; test: Antimycobacterial activity against extensively drug-resistant Mycobacterium tuberculosis isolate 2301 horboring rpoB S531L, katG R463L/E217G, gyrA D94N/S95T, rrs A1401G by CLSI method; format: functional
[4] = test system: Mycobacterium tuberculosis; test: Antimycobacterial activity against extensively drug-resistant Mycobacterium tuberculosis isolate 2474 horboring rpoB H526Y, katG D329A/R463L, gyrA D94G/S95T, rrs A1401G by CLSI method; format: functional
[5] = test system: Mycobacterium tuberculosis; test: Antimycobacterial activity against extensively drug-resistant Mycobacterium tuberculosis isolate 2911 horboring rpoB D516V, katG S315T/R463L, gyrA D94G/S95T/R128S/Y129C, rrs A1401G by CLSI method; format: functional
[6] = test system: Mycobacterium tuberculosis; test: Antimycobacterial activity against extensively drug-resistant Mycobacterium tuberculosis H37Rv by CLSI method; format: functional
[7] = test system: Mycobacterium tuberculosis; test: Antimycobacterial activity against extensively drug-resistant Mycobacterium tuberculosis isolate 2403 obtained from sputum of patient at 0.1 ug/ml by Bactec MGIT960 modified proportion method; format: functional, organism-based
[8] = test system: Mycobacterium tuberculosis; test: Antimycobacterial activity against extensively drug-resistant Mycobacterium tuberculosis isolate 2301 obtained from sputum of patient at 0.1 ug/ml by Bactec MGIT960 modified proportion method; format: functional, organism-based
[9] = test system: Mycobacterium tuberculosis; test: Antimycobacterial activity against extensively drug-resistant Mycobacterium tuberculosis isolate 2911 obtained from sputum of patient at 0.1 ug/ml by Bactec MGIT960 modified proportion method; format: functional, organism-based
[10] = test system: Mycobacterium tuberculosis; test: Antimycobacterial activity against extensively drug-resistant Mycobacterium tuberculosis isolate 2474 obtained from sputum of patient at 0.1 ug/ml by Bactec MGIT960 modified proportion method; format: functional, organism-based
[11] = test system: Mycobacterium tuberculosis; test: Antimycobacterial activity against extensively drug-resistant Mycobacterium tuberculosis isolate 625 obtained from sputum of patient at 0.1 ug/ml by Bactec MGIT960 modified proportion method; format: functional, organism-based
[12] = test system: Mycobacterium tuberculosis; test: Antimycobacterial activity against extensively drug-resistant Mycobacterium tuberculosis isolate 761 obtained from pus of patient at 0.1 ug/ml by Bactec MGIT960 modified proportion method; format: functional, organism-based
[13] = test system: Mycobacterium tuberculosis; test: Antimycobacterial activity against extensively drug-resistant Mycobacterium tuberculosis isolate 2403 obtained from sputum of patient at 4 ug/ml by Bactec MGIT960 modified proportion method; format: functional, organism-based
[14] = test system: Mycobacterium tuberculosis; test: Antimycobacterial activity against extensively drug-resistant Mycobacterium tuberculosis isolate 2301 obtained from sputum of patient at 4 ug/ml by Bactec MGIT960 modified proportion method; format: functional, organism-based
[15] = test system: Mycobacterium tuberculosis; test: Antimycobacterial activity against extensively drug-resistant Mycobacterium tuberculosis isolate 2911 obtained from sputum of patient at 4 ug/ml by Bactec MGIT960 modified proportion method; format: functional, organism-based
[16] = test system: Mycobacterium tuberculosis; test: Antimycobacterial activity against extensively drug-resistant Mycobacterium tuberculosis isolate 2474 obtained from sputum of patient at 4 ug/ml by Bactec MGIT960 modified proportion method; format: functional, organism-based
[17] = test system: Mycobacterium tuberculosis; test: Antimycobacterial activity against extensively drug-resistant Mycobacterium tuberculosis isolate 625 obtained from sputum of patient at 4 ug/ml by Bactec MGIT960 modified proportion method; format: functional, organism-based
[18] = test system: Mycobacterium tuberculosis; test: Antimycobacterial activity against extensively drug-resistant Mycobacterium tuberculosis isolate 761 obtained from pus of patient at 4 ug/ml by Bactec MGIT960 modified proportion method; format: functional, organism-based
[19] = test system: Mycobacterium tuberculosis; test: Antimycobacterial activity against extensively drug-resistant Mycobacterium tuberculosis isolate 2403 obtained from sputum of patient at 2 ug/ml by Bactec MGIT960 modified proportion method; format: functional, organism-based
[20] = test system: Mycobacterium tuberculosis; test: Antimycobacterial activity against extensively drug-resistant Mycobacterium tuberculosis isolate 2301 obtained from sputum of patient at 2 ug/ml by Bactec MGIT960 modified proportion method; format: functional, organism-based
[21] = test system: Mycobacterium tuberculosis; test: Antimycobacterial activity against extensively drug-resistant Mycobacterium tuberculosis isolate 2911 obtained from sputum of patient at 2 ug/ml by Bactec MGIT960 modified proportion method; format: functional, organism-based
[22] = test system: Mycobacterium tuberculosis; test: Antimycobacterial activity against extensively drug-resistant Mycobacterium tuberculosis isolate 2474 obtained from sputum of patient at 2 ug/ml by Bactec MGIT960 modified proportion method; format: functional, organism-based
[23] = test system: Mycobacterium tuberculosis; test: Antimycobacterial activity against extensively drug-resistant Mycobacterium tuberculosis isolate 625 obtained from sputum of patient at 2 ug/ml by Bactec MGIT960 modified proportion method; format: functional, organism-based
[24] = test system: Mycobacterium tuberculosis; test: Antimycobacterial activity against extensively drug-resistant Mycobacterium tuberculosis isolate 761 obtained from pus of patient at 2 ug/ml by Bactec MGIT960 modified proportion method; format: functional, organism-based
[25] = test system: Mycobacterium tuberculosis; test: Antimycobacterial activity against extensively drug-resistant Mycobacterium tuberculosis isolate 2301 obtained from sputum of patient at 1 ug/ml by Bactec MGIT960 modified proportion method; format: functional, organism-based
[26] = test system: Mycobacterium tuberculosis; test: Antimycobacterial activity against extensively drug-resistant Mycobacterium tuberculosis isolate 2911 obtained from sputum of patient at 1 ug/ml by Bactec MGIT960 modified proportion method; format: functional, organism-based
[27] = test system: Mycobacterium tuberculosis; test: Antimycobacterial activity against extensively drug-resistant Mycobacterium tuberculosis isolate 2474 obtained from sputum of patient at 1 ug/ml by Bactec MGIT960 modified proportion method; format: functional, organism-based
[28] = test system: Mycobacterium tuberculosis; test: Antimycobacterial activity against extensively drug-resistant Mycobacterium tuberculosis isolate 625 obtained from sputum of patient at 1 ug/ml by Bactec MGIT960 modified proportion method; format: functional, organism-based
[29] = test system: Mycobacterium tuberculosis; test: Antimycobacterial activity against extensively drug-resistant Mycobacterium tuberculosis isolate 761 obtained from pus of patient at 1 ug/ml by Bactec MGIT960 modified proportion method; format: functional, organism-based
[30] = test system: Mycobacterium tuberculosis; test: Antimycobacterial activity against extensively drug-resistant Mycobacterium tuberculosis isolate 2403 obtained from sputum of patient at 1 ug/ml by Bactec MGIT960 modified proportion method; format: functional, organism-based

| SMILES | MIC [1] | MIC [2] | MIC [3] | MIC [4] | MIC [5] | MIC [6] | further results |
| --- | --- | --- | --- | --- | --- | --- | --- |
| CCc1cc(C(N)=S)ccn1 [ETHIONAMIDE] | 4 µg/mL (≈ 24.1 µM) | 1 µg/mL (≈ 6.02 µM) | 2 µg/mL (≈ 12 µM) | >16 µg/mL | 4 µg/mL (≈ 24.1 µM) | 0.5 µg/mL (≈ 3.01 µM) | – |
| NNC(=O)c1ccncc1 [ISONIAZID] | >16 µg/mL | 4 µg/mL (≈ 29.2 µM) | 0.5 µg/mL (≈ 3.65 µM) | 1 µg/mL (≈ 7.29 µM) | 4 µg/mL (≈ 29.2 µM) | 0.25 µg/mL (≈ 1.82 µM) | Activity [7]: inactive; Activity [8]: inactive; Activity [9]: inactive; Activity [10]: inactive; Activity [11]: inactive; Activity [12]: inactive |
| NC[C@H]1O[C@H](O[C@H]2[C@H](O)[C@@H](O[C@H]3O[C@H](CO)[C@@H](O)[C@H](N)[C@H]3O)[C@H](N)C[C@@H]2N)[C@H](O)[C@@H](O)[C@@H]1O [KANAMYCIN] | >16 µg/mL | >16 µg/mL | >16 µg/mL | >16 µg/mL | >16 µg/mL | 2 µg/mL (≈ 4.13 µM) | Activity [13]: inactive; Activity [14]: inactive; Activity [15]: inactive; Activity [16]: Active; Activity [17]: inactive; Activity [18]: inactive |
| CC1COc2c(N3CCN(C)CC3)c(F)cc3c(=O)c(C(=O)O)cn1c23 (stereo unspecified) [OFLOXACIN] | 16 µg/mL (≈ 44.3 µM) | 16 µg/mL (≈ 44.3 µM) | 8 µg/mL (≈ 22.1 µM) | 8 µg/mL (≈ 22.1 µM) | 8 µg/mL (≈ 22.1 µM) | 0.5 µg/mL (≈ 1.38 µM) | Activity [19]: inactive; Activity [20]: inactive; Activity [21]: inactive; Activity [22]: inactive; Activity [23]: inactive; Activity [24]: inactive |
| CO[C@H]1/C=C/O[C@@]2(C)Oc3c(C)c(O)c4c(O)c(c(/C=N/N5CCN(C)CC5)c(O)c4c3C2=O)NC(=O)/C(C)=C\C=C\[C@H](C)[C@H](O)[C@@H](C)[C@@H](O)[C@@H](C)[C@H](OC(C)=O)[C@@H]1C [RIFAMPIN] | >16 µg/mL | >16 µg/mL | >16 µg/mL | >16 µg/mL | 16 µg/mL (≈ 19.4 µM) | 0.25 µg/mL (≈ 0.304 µM) | Activity [25]: inactive; Activity [26]: inactive; Activity [27]: inactive; Activity [28]: inactive; Activity [29]: inactive; Activity [30]: inactive |
| C[C@@H]1CN(c2c(F)c(N)c3c(=O)c(C(=O)O)cn(C4CC4)c3c2F)C[C@H](C)N1 [SPARFLOXACIN] | 8 µg/mL (≈ 20.4 µM) | 16 µg/mL (≈ 40.8 µM) | 16 µg/mL (≈ 40.8 µM) | 16 µg/mL (≈ 40.8 µM) | >16 µg/mL | 0.5 µg/mL (≈ 1.27 µM) | – |
| CN[C@@H]1[C@H](O[C@H]2[C@H](O[C@H]3[C@H](O)[C@@H](O)[C@H](N=C(N)N)[C@@H](O)[C@@H]3N=C(N)N)O[C@@H](C)[C@]2(O)C=O)O[C@@H](CO)[C@H](O)[C@H]1O [STREPTOMYCIN] | 16 µg/mL (≈ 27.5 µM) | 0.125 µg/mL (≈ 0.215 µM) | 0.5 µg/mL (≈ 0.86 µM) | >16 µg/mL | >16 µg/mL | 1 µg/mL (≈ 1.72 µM) | Activity [25]: inactive; Activity [26]: inactive; Activity [27]: inactive; Activity [29]: Active; Activity [30]: inactive |
